Results from patent publication US9181193B2, “Indenoquinolone compound, preparation method and use thereof” (Second Military Medical University, PLA, priority 2010, dated 2015).

Legend:
Assay type in all cases: cell-based
[1] = system: A549 (human lung cancer cells); assay: MTT in vitro anti-tumor activity test, A549; conditions: MTT, 72 h; for A549 IC50: A549 human lung cancer cells
[2] = system: Colo205 (human colon cancer cells); assay: MTT in vitro anti-tumor activity test, Colo205; conditions: MTT, 72 h; for Colo205 IC50: Colo205 human colon cancer cells
[3] = system: MDA-MB-435 (human breast cancer cells); assay: MTT in vitro anti-tumor activity test, MDA-MB-435; conditions: MTT, 72 h; for MDA-MB-435 IC50: MDA-MB-435 human breast cancer cells
[4] = system: HepG2 (human hepatoma cells); assay: MTT in vitro anti-tumor activity test, HepG2; conditions: MTT, 72 h; for HepG2 IC50: HepG2 human hepatoma cells

Structure (SMILES)	A549 100 μg/mL IC % [1] [%]	A549 IC50 [1] [µg/mL]	Colo205 100 μg/mL IC % [2] [%]	Colo205 IC50 [2] [µg/mL]	MDA-MB-435 100 μg/mL IC % [3] [%]	MDA-MB-435 IC50 [3] [µg/mL]	HepG2 100 μg/mL IC % [4] [%]	HepG2 IC50 [4] [µg/mL]
CCN(CC)CCOc1nc2ccccc2c2c1-c1ccc(OC)cc1C2=O [Compound 2]	100	1.53	100	0.427	100	1.99	100	2.50
COc1ccc2c(c1)C(=O)c1c-2c(OCCN2CCCC2)nc2ccccc12 [Compound 3]	99.90	14.39	92.33	10.97	100	26.55	80.79	24.99
COc1ccc2c(c1)C(=O)c1c-2c(OCCn2ccnc2)nc2ccccc12 [Compound 4]	78.34	16.61	60.32	13.51	48.21	>100	34.87	>100
COc1ccc2c(c1)C(=O)c1c-2c(OCCN2CCOCC2)nc2ccccc12 [Compound 5]	48.72	>100	43.88	>100	19.75	>100	13.97	>100
CN(C)CCOc1nc2ccccc2c2c1-c1ccc(Cl)cc1C2=O [Compound 7]	90.29	15.12	100	6.46	100	4.91	100	22.95
CCN(CC)CCOc1nc2ccccc2c2c1-c1ccc(Cl)cc1C2=O [Compound 8]	84.24	28.56	99.01	15.16	100	31.62	73.57	28.84
O=C1c2cc(Cl)ccc2-c2c(OCCN3CCCC3)nc3ccccc3c21 [Compound 9]	100	5.78	71.11	7.10	100	12.28	82.92	15.99
O=C1c2cc(Cl)ccc2-c2c(OCCn3ccnc3)nc3ccccc3c21 [Compound 10]	97.57	14.48	80.16	31.06	99.70	15.02	92.06	34.93
O=C1c2cc(Cl)ccc2-c2c(OCCN3CCCCC3)nc3ccccc3c21 [Compound 11]	69.84	32.73	69.24	39.33	69.43	44.76	63.27	55.62
CN(C)CCCOc1nc2ccccc2c2c1-c1ccc(Cl)cc1C2=O [Compound 12]	88.18	3.04	100	1.16	100	0.585	100	3.19
COc1ccc2c(c1)C(=O)c1c-2c(OCCN(C)C)nc2ccc(OC)cc12 [Compound 13]	100	17.27	96.52	1.79	100	4.34	100	2.47
COc1ccc2c(c1)C(=O)c1c-2c(OCCN2CCCCC2)nc2ccc(OC)cc12 [Compound 15]	100	6.95	100	3.13	99.08	6.88	100	5.02
COc1ccc2c(c1)C(=O)c1c-2c(OCCCN(C)C)nc2ccc(OC)cc12 [Compound 16]	100	2.91	100	3.49	100	4.09	100	3.48
COc1ccc2c(c1)-c1c(OCCN(C)C)nc3ccc(OC)cc3c1C2=O [Compound 17]	85.30	18.26	100	6.70	100	4.98	100	10.31
COc1ccc2nc(OCCN3CCCC3)c3c(c2c1)C(=O)c1cc(Br)ccc1-3 [Compound 18]	35.69	>100	43.88	>100	67.72	24.86	35.48	>100
COc1ccc2nc(OCCn3ccnc3)c3c(c2c1)C(=O)c1cc(Br)ccc1-3 [Compound 19]	17.66	>100	80.89	18.70	59.37	42.24	37.50	>100
CCN(CC)CCOc1nc2cc(OC)c(OC)cc2c2c1-c1ccc(OC)cc1C2=O [Compound 21]	100	1.68	88.97	2.56	93.41	1.17	93.16	0.700
COc1ccc2c(c1)C(=O)c1c-2c(OCCN2CCCC2)nc2cc(OC)c(OC)cc12 [Compound 22]	97.05	1.43	93.84	1.30	100	1.85	81.69	8.61
COc1ccc2c(c1)C(=O)c1c-2c(OCCN2CCCCC2)nc2cc(OC)c(OC)cc12 [Compound 24]	93.92	10.32	98.38	5.15	90.85	8.92	98.55	10.78
COc1ccc2c(c1)C(=O)c1c-2c(OCCCN(C)C)nc2cc(OC)c(OC)cc12 [Compound 25]	100	2.02	90.36	1.15	85.38	2.66	89.70	1.58
